Where “and” joins values, the source holds several entries; their conditions need not be identical. Equal entries are not always repeated.
Tested on: Donor 3 GMA T-Cell Lines
Assay: ATP proliferation assay (CellTiter Glo), Donor 3 GMA T-cell lines, incl. reactivity to non-canonical GA peptides
Type: cell-based, human
Conditions: for Non-Canonical Peptide Non-Reactivity: proliferation <2 times no antigen control; for Non-Canonical Peptide Reactivity: at least one proliferation value >=2 times no antigen control; for Mean, ATP proliferation assay: 10 μg/mL
[1] = T-cell line 165-B5G, 1.25 μg/mL antigen, Day 55 of culturing, No Antigen Value 846
[2] = T-cell line 165-B5G, 2.5 μg/mL antigen, Day 55 of culturing, No Antigen Value 846
[3] = T-cell line 165-B5G, 5 μg/mL antigen, Day 55 of culturing, No Antigen Value 846
[4] = T-cell line 165-B5G, 10 μg/mL antigen, Day 55 of culturing, No Antigen Value 846
[5] = T-cell line 165-C5G, 1.25 μg/mL antigen, autologous B-LCL
[6] = T-cell line 165-C5G, 2.5 μg/mL antigen, autologous B-LCL
[7] = T-cell line 165-C5G, 5 μg/mL antigen, autologous B-LCL
[8] = T-cell line 165-C5G, 10 μg/mL antigen, autologous B-LCL
[9] = T-cell line 165-E7G, 1.25 μg/mL antigen, autologous B-LCL, Day 55
[10] = T-cell line 165-E7G, 2.5 μg/mL antigen, autologous B-LCL, Day 55
[11] = T-cell line 165-E7G, 5 μg/mL antigen, autologous B-LCL, Day 55
[12] = T-cell line 165-E7G, 10 μg/mL antigen, autologous B-LCL, Day 55
[13] = T-cell line 165-E9G, 1.25 μg/mL antigen, autologous B-LCL
[14] = T-cell line 165-E9G, 2.5 μg/mL antigen, autologous B-LCL
[15] = T-cell line 165-E9G, 5 μg/mL antigen, autologous B-LCL
[16] = T-cell line 165-E9G, 10 μg/mL antigen, autologous B-LCL
[17] = T-cell line 165-F5G, 1.25 μg/mL antigen, autologous B-LCL
[18] = T-cell line 165-F5G, 2.5 μg/mL antigen, autologous B-LCL
[19] = T-cell line 165-F5G, 5 μg/mL antigen, autologous B-LCL
[20] = T-cell line 165-F5G, 10 μg/mL antigen, autologous B-LCL
[21] = T-cell line 165-F10G, 1.25 μg/mL antigen, autologous B-LCL
[22] = T-cell line 165-F10G, 2.5 μg/mL antigen, autologous B-LCL
[23] = T-cell line 165-F10G, 5 μg/mL antigen, autologous B-LCL
[24] = T-cell line 165-F10G, 10 μg/mL antigen, autologous B-LCL
[25] = T-cell line 165-H11G, 1.25 μg/mL antigen, autologous B-LCL
[26] = T-cell line 165-H11G, 2.5 μg/mL antigen, autologous B-LCL
[27] = T-cell line 165-H11G, 5 μg/mL antigen, autologous B-LCL
[28] = T-cell line 165-H11G, 10 μg/mL antigen, autologous B-LCL

poly (Glu-Tyr; 1:1) [GT 11]
Non-Canonical Peptide Non-Reactivity (165-B5G): GT 11 | Non-Canonical Peptide Non-Reactivity (165-C4G): GT 11 | Non-Canonical Peptide Non-Reactivity (165-C5G): GT 11 | Non-Canonical Peptide Non-Reactivity (165-E7G): GT 11 | Non-Canonical Peptide Non-Reactivity (165-E9G): GT 11 | Non-Canonical Peptide Non-Reactivity (165-F5G): GT 11 | Non-Canonical Peptide Non-Reactivity (165-F8G): GT 11 | Non-Canonical Peptide Non-Reactivity (165-F10G): GT 11 | Non-Canonical Peptide Non-Reactivity (165-H11G): GT 11 | Proliferation (luminescent ATP assay), Mean [1]: 2167 RLU | Proliferation (luminescent ATP assay), Mean [2]: 1957 RLU | Proliferation (luminescent ATP assay), Mean [3]: 1353 RLU | Proliferation (luminescent ATP assay), Mean [4]: 1191 RLU | Proliferation (luminescent ATP assay), Mean [5]: 523 RLU | Proliferation (luminescent ATP assay), Mean [6]: 620 RLU | Proliferation (luminescent ATP assay), Mean [7]: 428 RLU | Proliferation (luminescent ATP assay), Mean [8]: 471 RLU | Proliferation (luminescent ATP assay), Mean [9]: 2821 RLU | Proliferation (luminescent ATP assay), Mean [10]: 2914 RLU | Proliferation (luminescent ATP assay), Mean [11]: 2332 RLU | Proliferation (luminescent ATP assay), Mean [12]: 1848 RLU | Proliferation (luminescent ATP assay), Mean [13]: 110 RLU | Proliferation (luminescent ATP assay), Mean [14]: 119 RLU | Proliferation (luminescent ATP assay), Mean [15]: 103 RLU | Proliferation (luminescent ATP assay), Mean [16]: 96 RLU | Proliferation (luminescent ATP assay), Mean [17]: 160 RLU | Proliferation (luminescent ATP assay), Mean [18]: 124 RLU | Proliferation (luminescent ATP assay), Mean [19]: 124 RLU | Proliferation (luminescent ATP assay), Mean [20]: 158 RLU | Proliferation (luminescent ATP assay), Mean [21]: 1388 RLU | Proliferation (luminescent ATP assay), Mean [22]: 1506 RLU | Proliferation (luminescent ATP assay), Mean [23]: 1598 RLU | Proliferation (luminescent ATP assay), Mean [24]: 1294 RLU | Proliferation (luminescent ATP assay), Mean [25]: 17 RLU | Proliferation (luminescent ATP assay), Mean [26]: 354 RLU | Proliferation (luminescent ATP assay), Mean [27]: 352 RLU | Proliferation (luminescent ATP assay), Mean [28]: 308 RLU

poly (Lys-Tyr; 1:1) [LT 11]
proliferation response to non-canonical GA peptides (165-05G (so in the source), minimum 55 days in culture, 0, 1, 3, 10 μg/mL): responded | Non-Canonical Peptide Non-Reactivity (165-B5G): LT 11 | Non-Canonical Peptide Reactivity (165-C5G): LT 11 | Non-Canonical Peptide Non-Reactivity (165-E7G): LT 11 | Non-Canonical Peptide Non-Reactivity (165-E9G): LT 11 | Non-Canonical Peptide Non-Reactivity (165-F5G): LT 11 | Non-Canonical Peptide Reactivity (165-F10G): LT 11 | Non-Canonical Peptide Non-Reactivity (165-H11G): LT 11 | Reactive T-Cell Line (Donor 3 GMA lines, at least a 50% increase in proliferation relative to a control after stimulation with the non-canonical GA peptide): 165-C5G (Donor 3) and 165-F10G (Donor 3) | Nonreactive T-Cell Line (Donor 3 GMA lines, stimulation with the non-canonical GA peptide): 165-B5G (Donor 3) and 165-F5G (Donor 3) and 165-E7G (Donor 3) and 165-E9G (Donor 3) and 165-H11G (Donor 3) | Proliferation (luminescent ATP assay), Mean [1]: 1497 RLU | Proliferation (luminescent ATP assay), Mean [2]: 1724 RLU | Proliferation (luminescent ATP assay), Mean [3]: 1666 RLU | Proliferation (luminescent ATP assay), Mean [4]: 2705 RLU | Proliferation (luminescent ATP assay), Mean [5]: 527 RLU | Proliferation (luminescent ATP assay), Mean [6]: 680 RLU | Proliferation (luminescent ATP assay), Mean [7]: 3010 RLU | Proliferation (luminescent ATP assay), Mean [8]: 34438 RLU | Proliferation (luminescent ATP assay), Mean [9]: 2785 RLU | Proliferation (luminescent ATP assay), Mean [10]: 5270 RLU | Proliferation (luminescent ATP assay), Mean [11]: 3559 RLU | Proliferation (luminescent ATP assay), Mean [12]: 1983 RLU | Proliferation (luminescent ATP assay), Mean [13]: 132 RLU | Proliferation (luminescent ATP assay), Mean [14]: 129 RLU | Proliferation (luminescent ATP assay), Mean [15]: 89 RLU | Proliferation (luminescent ATP assay), Mean [16]: 91 RLU | Proliferation (luminescent ATP assay), Mean [17]: 126 RLU | Proliferation (luminescent ATP assay), Mean [18]: 113 RLU | Proliferation (luminescent ATP assay), Mean [19]: 136 RLU | Proliferation (luminescent ATP assay), Mean [20]: 129 RLU | Proliferation (luminescent ATP assay), Mean [21]: 1145 RLU | Proliferation (luminescent ATP assay), Mean [22]: 1270 RLU | Proliferation (luminescent ATP assay), Mean [23]: 1552 RLU | Proliferation (luminescent ATP assay), Mean [24]: 8012 RLU | Proliferation (luminescent ATP assay), Mean [25]: 15 RLU | Proliferation (luminescent ATP assay), Mean [26]: 326 RLU | Proliferation (luminescent ATP assay), Mean [27]: 357 RLU | Proliferation (luminescent ATP assay), Mean [28]: 178 RLU

FFKNIVTPRTPPPSQGK [MBP]
Mean, ATP proliferation assay (T-cell line 165-B2G, Day 40): 3320 | Proliferation (luminescent ATP assay), Mean [4]: 871 RLU | Mean, ATP proliferation assay (T-cell line 165-B5G, Day 40): 3398 | Mean, ATP proliferation assay (T-cell line 165-C4G, Day 40): 3482 | Proliferation (luminescent ATP assay), Mean [8]: 469 RLU | Mean, ATP proliferation assay (T-cell line 165-C5G, Day 40): 3401 | Mean, ATP proliferation assay (T-cell line 165-C8G, tested with the Donor 3 COP lines of Table 25): 5279 RLU | Mean, ATP proliferation assay (T-cell line 165-D8G, Day 40): 6909 | Proliferation (luminescent ATP assay), Mean [12]: 2116 RLU | Mean, ATP proliferation assay (T-cell line 165-E7G, Day 40): 2989 | Proliferation (luminescent ATP assay), Mean (T-cell line 165-E9G, 1 μg/mL antigen, Day 50 of culturing, No Antigen Value 1742): 1527 RLU | Proliferation (luminescent ATP assay), Mean (T-cell line 165-E9G, 3 μg/mL antigen, Day 50 of culturing, No Antigen Value 1742): 1428 RLU | Proliferation (luminescent ATP assay), Mean [16]: 163 RLU | Mean, ATP proliferation assay (T-cell line 165-E9G, Day 40): 2892 | Proliferation (luminescent ATP assay), Mean (T-cell line 165-E9G, 30 μg/mL antigen, Day 50 of culturing, No Antigen Value 1742): 1208 RLU | Proliferation (luminescent ATP assay), Mean (T-cell line 165-E9G, 10 μpg/mL antigen, Day 50 of culturing, No Antigen Value 1742): 1247 RLU | Mean, ATP proliferation assay (T-cell line 165-F2G, Day 40): 2345 | Proliferation (luminescent ATP assay), Mean [20]: 138 RLU | Mean, ATP proliferation assay (T-cell line 165-F5G, Day 40): 2904 | Mean, ATP proliferation assay (T-cell line 165-F8G, Day 40): 3366 | Proliferation (luminescent ATP assay), Mean [24]: 831 RLU | Mean, ATP proliferation assay (T-cell line 165-F10G, Day 40): 3585 | Proliferation (luminescent ATP assay), Mean [28]: 323 RLU | Mean, ATP proliferation assay (T-cell line 165-H11G, Day 40): 2925

— US9995734B2, “Human T cell line assay for evaluating the immunologic identity of glatiramer acetate preparations” (Mylan Inc., priority 2013, dated 2018)
